{
  "source": "patent US20250041624A1",
  "about": "“METHOD FOR ENHANCING ACTIVITY OF PHOTOSENSITIZER BY MAGNETIC FIELD” (PEKING UNIVERSITY, priority 2021, published 2025)",
  "test": "Reaction rate of fluorescent probe SOSG with 1O2 generated by photosensitizer under light and magnetic field",
  "assay_type": "physicochemical",
  "details": "Ce6 and SOSG 10 μmol/L in water, 640 nm LED 5 mW·cm−2",
  "experimental": "(1) The photosensitizer Rose Bengal (RB) (the purity >98%, available from Saen Chemical Technologies (Shanghai) Ltd. Co., branded as Energy Chemical) and singlet oxygen fluorescent probe (SOSG) are dissolved in water (SOSG available from ThermoFisher Scientific (China) Co., Ltd.). In the resulting solution, the photosensitizer and SOSG are both at a concentration of 10 μmol/L. In a magnetic field with certain strength, the solutions are exposed to a 561 nm LED lamp (light emitting diode) at a power of 5 mW·cm^−2 and tested for fluorescence spectra at 0, 15, 30, 45, 60, 90, 120 and 180 seconds of light exposure, respectively, resulting in emission intensity ([…]) versus time (t) curves. The above fluorescence spectroscopy test is performed at a magnetic field strength of 0, 10, 35, 85, 180, 300 mT, respectively (external magnetic field provided by a neodymium iron boron permanent magnet).\n(2) The photosensitizer chlorin e6 (Ce6, Chlorin e6) (available from Saen Chemical Technologies (Shanghai) Ltd. Co., branded as Energy Chemical) and singlet oxygen fluorescent probe (SOSG) are dissolved in water, both with a concentration of 10 μmol/L in the resulting solutions. In a magnetic field with certain strength, the solutions are exposed to a 640 nm LED lamp (light emitting diode) at a power of 5 mW·cm^−2 and tested for fluorescence spectra at 0, 15, 30, 45, 60, 90, 120 and 180 seconds of light exposure, respectively, resulting in emission intensity ([…]) versus time (t) curves. The above fluorescence spectra are tested at a magnetic field strength of 0, 10, 30, 70, 150, 250 mT, respectively.\nThe external magnetic field is supplied by Neodymium Iron Boron Permanent Magnet. Fluorescence spectra are tested using Edinburg FLS980 Steady State Transient Fluorescence Spectrometer with a detector of PMT R928 and a light source of 450 W ozone-free xenon lamp with excitation wavelength of λex=488 nm.\nUnder irradiation conditions, photosensitizer is excited to produce singlet oxygen ^1O2, and fluorescent probe SOSG reacts with ^1O2 to give endoperoxide with green fluorescence emission characteristic, with emission wavelength of 525 nm under excitation wavelength conditions of 488 nm. The reaction has a reaction rate of r.\nIn the present invention, through application of light and a magnetic field, the magnetic field effects (MFEs) is quantified by mfeR, the change rate of the reaction rate r, mfeR=(rB−r0)/r0×100%, where r0 is the reaction rate at a magnetic field strength of 0 mT and rB is the reaction rate at a magnetic field strength of B mT. Where the reaction rate (r) is proportional to the slope of the tangent of a curve (first derivative of the curve) of the emission intensity (I525 nm) versus time (t). Under magnetic field strengths of 0, 10, 35, 85, 180, 300 mT and from the time of starting to illuminate and place in magnetic field (the time recorded as 0), the first derivative of the I525 nm−t curve is 1, 1.05, 1.09, 0.99, 1.12, 1.14 (normalized).",
  "data": [
    {"substance": "chlorin e6 [Ce6]", "values": [
      {"measurement": "first derivative of I525 nm−t curve at time 0 (normalized)", "setting": "MF 0 mT", "value": 1},
      {"measurement": "first derivative of I525 nm−t curve at time 0 (normalized)", "setting": "MF 10 mT", "value": 1.09},
      {"measurement": "first derivative of I525 nm−t curve at time 0 (normalized)", "setting": "MF 30 mT", "value": 1.33},
      {"measurement": "first derivative of I525 nm−t curve at time 0 (normalized)", "setting": "MF 70 mT", "value": 1.23},
      {"measurement": "first derivative of I525 nm−t curve at time 0 (normalized)", "setting": "MF 150 mT", "value": 1.16},
      {"measurement": "first derivative of I525 nm−t curve at time 0 (normalized)", "setting": "MF 250 mT", "value": 1.12}
    ]}
  ]
}
